In patent publication US20170107207A1, “AMINOPYRAZOLONE DERIVATIVE” (DAIICHI SANKYO COMPANY, LIMITED, priority 2014, published 2017) one finds GI50 and IC50 data, which are given here for 15 molecules.

Experiment [1] concerns human lymphoma cell line RAMOS cells. The experiment can be described thus: Cell growth inhibition test using RAMOS cell, ATP assay (CellTiter-Glo). Format: cell-based. As to conditions: Homo sapiens, Ramos, 72 h, cultured 3 days, 50% growth inhibition concentration. The procedure: A cell growth inhibition test was carried out by treating human lymphoma cell line RAMOS cells with a test compound for a given period and then counting the number of viable cells by MTT assay or CellTiter-Glo Luminescent Cell Viability Assay (manufactured by Promega Corp.; hereinafter, referred to as ATP assay).
RAMOS cells were inoculated at 4000 cells/40 μL/well to a 384-well plate containing the compound prepared in advance at predetermined concentrations. The cells thus inoculated were cultured at 37° C. for 3 days under 5% CO2. In order to measure a cell survival rate, CellTiter-Glo Reagent was added in an amount corresponding to 1/4 of the amount of the culture solution at the day of cell inoculation and at the final culture date and stirred at room temperature for 2 minutes. Then, luminescence intensity was measured using a plate reader. The cell survival rate was calculated according to the expression given below.
The number of viable cells and luminescence intensity have been confirmed to correlate with each other. Therefore, the rate of cell growth was calculated according to the following expression: Rate of cell growth (T/C %) of a test compound-supplemented well=100×[(B−C)/(A−C)] wherein A represents the luminescence intensity (final culture date) of a test compound-free well; B represents the luminescence intensity (final culture date) of a test compound-containing well; and C represents the luminescence intensity (day of cell inoculation) of a well at the start of contact of the cells with the test compound.
T/C % at each concentration of the test compound was determined. The concentration at which the test compound offered 50% growth rate was calculated as a GI50 value from the growth rates at two points interpolating 50% and the concentrations, and is shown in Table 56.
On the technique in general: ATP-based viability assays read luminescence as a measure of living cells.

Experiment [2] has as its target T1, TIP48/TIP49 complex (Homo sapiens, UniProt Q9Y230+Q9Y265).
T1 construct: made in house; host or cells: E. coli
Nature of the experiment: ATPase assay of TIP48/TIP49 complex (ADP-Glo). Format: biochemical. The conditions noted are these: concentration at which the ATPase activity was inhibited by 50%. An excerpt:
The ATPase activity of the TIP48/TIP49 complex can be measured by use of an ATPase assay described below in Test Examples 1 and 2. The ATPase activity of the TIP48/TIP49 complex can be measured, as described below in the Test Examples, for example, by using recombinant human TIP48 and TIP49 proteins (hereinafter, referred to as rTIP48 and rTIP49) and ATP in the presence or absence of a test compound and measuring the amount of ADP formed through hydrolysis by the ATPase activity of the TIP48/TIP49 complex, using ADP-Glo. Alternatively, the ATPase activity of the TIP48/TIP49 complex can be measured by a method described in, for example, J. Mol. Biol. 366, 172-179 (2007).
An ATPase assay of a TIP48/TIP49 complex was conducted using rTIP48 and rTIP49. Human TIP48 and TIP49 DNAs were purchased from Open Biosystems. Human TIP48 and TIP49 cDNAs cloned by PCR using the purchased DNAs were each integrated into plasmids for expression in E. coli and expressed in E. coli to obtain rTIP48 and rTIP49.
A test compound was dissolved at 10 mM using DMSO. The solution was diluted to 10 concentrations as 4-fold serial dilutions from 10 mM using DMSO.
A 2×assay buffer (100 mM Tris-HCl, pH 7.5, 100 mM NaCl, 40 mM MgCl2, 2 mM DTT, 20 μM ATP, and 0.2 mg/mL BSA) was dispensed at 24.5 μL/well to a 384-well assay plate.
Test compound solutions were dispensed thereto at 1 μL/well. Subsequently, the solution in each well was mixed using a plate mixer.
rTIP48 and rTIP49 were diluted to a concentration of 50 μg/mL using sterilized water. The diluted solution was dispensed at 24.5 μL/well to the 384-well assay plate. Subsequently, the solution in each well was mixed using a plate mixer (final concentration: 24.5 μg/mL) (concentration of each test compound solution: 200 μM, 50 μM, 12.5 μM, 3.12 μM, 0.78 μM, 0.20 μM, 0.049 μM, 0.012 μM, 0.003 μM, and 0.0007 μM; DMSO concentration: 2%).
After the mixing using the plate mixer, the assay plate was left standing at room temperature for 1.5 hours.
5 μL of the solution in each well was transferred to a white assay plate, and ADP-Glo Reagent from ADP-Glo Kinase Assay (Promega Corp., catalog No. V9101) was dispensed thereto at 5 μL/well. After completion of the reaction, the plate was left standing at room temperature for 40 minutes. Kinase Detection Reagent was further dispensed thereto at 5 μL/well, and the plate was left standing at room temperature for 30 minutes. Then, luminescence intensity was measured using a plate reader.
The ATPase inhibitory activity was calculated according to the expression given below.
The luminescence intensity of a well supplemented with the test compound and the TIP48/TIP49 complex was defined as A. The luminescence intensity of a well supplemented with only the TIP48/TIP49 complex was defined as B. The luminescence intensity of a well supplemented with neither the test compound nor the TIP48/TIP49 complex was defined as C. The ratio between the test compound-supplemented group and the test compound-nonsupplemented group (T/C value) was determined according to the following calculation expression:
The dose-response curve was calculated using GraphPad Prism 4 from the concentration of each of the serially diluted test compounds and the ATPase inhibitory activity (%) at this concentration.

T1 sequence (Q9Y230 whole entry): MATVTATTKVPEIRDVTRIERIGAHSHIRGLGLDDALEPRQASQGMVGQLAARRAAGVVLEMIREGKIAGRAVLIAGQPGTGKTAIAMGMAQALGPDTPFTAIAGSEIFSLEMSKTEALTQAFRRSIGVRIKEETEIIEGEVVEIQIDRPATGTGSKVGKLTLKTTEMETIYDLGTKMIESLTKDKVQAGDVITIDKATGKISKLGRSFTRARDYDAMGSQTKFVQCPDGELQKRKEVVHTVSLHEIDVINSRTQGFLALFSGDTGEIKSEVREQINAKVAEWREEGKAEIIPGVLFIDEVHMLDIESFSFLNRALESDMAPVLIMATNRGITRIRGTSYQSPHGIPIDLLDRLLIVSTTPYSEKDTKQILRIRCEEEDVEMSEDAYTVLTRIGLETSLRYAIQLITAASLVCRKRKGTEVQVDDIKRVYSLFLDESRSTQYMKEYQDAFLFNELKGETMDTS
T1 sequence (Q9Y265 whole entry): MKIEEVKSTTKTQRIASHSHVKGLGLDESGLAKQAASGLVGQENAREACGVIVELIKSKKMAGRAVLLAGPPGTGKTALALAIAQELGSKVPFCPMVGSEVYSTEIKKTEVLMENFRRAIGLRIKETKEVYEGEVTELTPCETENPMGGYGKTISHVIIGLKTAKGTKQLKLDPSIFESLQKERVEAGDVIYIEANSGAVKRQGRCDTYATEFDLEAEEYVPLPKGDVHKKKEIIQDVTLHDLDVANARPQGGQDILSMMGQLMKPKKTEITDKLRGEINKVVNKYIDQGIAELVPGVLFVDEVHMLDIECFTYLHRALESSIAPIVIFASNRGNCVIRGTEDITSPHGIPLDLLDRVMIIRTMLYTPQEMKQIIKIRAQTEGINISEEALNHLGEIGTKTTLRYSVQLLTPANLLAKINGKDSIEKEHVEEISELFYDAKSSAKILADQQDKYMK

As a reminder, the GI50 is the concentration giving 50% growth inhibition. Read a high GI50 as less potent growth inhibition. Usually IC50 stands for the concentration that inhibits the measured activity by half. In turn, `CCOc1ccc(Cl)cc1C(=O)NCC(C)(C)CC(=O)Nc1c([C@@H](C)CN(C)C)n(C)n(-c2ccccc2)c1=O` [Example 67, 5-Chloro-N-[4-({5-[(1S)-2-(dimethylamino)-1-methylethyl]-1-methyl-3-oxo-2-phenyl-2,3-dihydro-1H-pyrazol-4-yl}amino)-2,2-dimethyl-4-oxobutyl]-2-ethoxybenzamide] gave a GI50 in experiment [1] of 150 nM. For the same molecule, in experiment [2], inhibition was half-maximal at 36 nM (IC50).
The matching figures for `CCOc1ncc(Br)cc1C(=O)NCC(C)(C)CC(=O)Nc1c(CC(C)(C)NC)n(C)n(-c2ccccc2)c1=O` [Example 60, 5-Bromo-N-[2,2-dimethyl-4-({1-methyl-5-[2-methyl-2-(methylamino)propyl]-3-oxo-2-phenyl-2,3-dihydro-1H-pyrazol-4-yl}amino)-4-oxobutyl]-2-ethoxypyridine-3-carboxamide]: 370 nM and 94 nM.
The matching figures for `Cc1cc2cc(Cl)cc(C(=O)NCC(C)(C)CC(=O)Nc3c(C[C@@H](C)N(C)C)n(C)n(-c4ccccc4)c3=O)c2o1` [Example 50, 5-Chloro-N-[4-({5-[(2R)-2-(dimethylamino)propyl]-1-methyl-3-oxo-2-phenyl-2,3-dihydro-1H-pyrazol-4-yl}amino)-2,2-dimethyl-4-oxobutyl]-2-methylbenzofuran-7-carboxamide]: 210 nM and 50 nM.
Take `CCOc1cc(F)c(Cl)cc1C(=O)NCC(C)(C)CC(=O)Nc1c(C[C@@H](C)N(C)C)n(C)n(-c2ccccc2)c1=O` [Example 49, 5-Chloro-N-[4-({5-[(2R)-2-(dimethylamino)propyl]-1-methyl-3-oxo-2-phenyl-2,3-dihydro-1H-pyrazol-4-yl}amino)-2,2-dimethyl-4-oxobutyl]-2-ethoxy-4-fluorobenzamide]: halving of growth in experiment [1] (GI50) required 160 nM. In experiment [2], this molecule yielded an IC50 of 69 nM.
The like results for `CCOc1ccc(Cl)cc1C(=O)NCC(C)(C)CC(=O)Nc1c(CCCCO)n(C)n(-c2ccccc2)c1=O` [Example 130, 5-Chloro-2-ethoxy-N-(4-{[5-(4-hydroxybutyl)-1-methyl-3-oxo-2-phenyl-2,3-dihydro-1H-pyrazol-4-yl]amino}-2,2-dimethyl-4-oxobutyl)benzamide] were, in that order, 64 nM and 54 nM.
As for `CCOc1cc(F)c(Cl)cc1C(=O)NCC(C)(C)CC(=O)Nc1c(CCN(C)CC(F)(F)F)n(C)n(-c2ccccc2)c1=O` [Example 38, 5-Chloro-N-{2,2-dimethyl-4-[(1-methyl-5-{2-[methyl(2,2,2-trifluoroethyl)amino]ethyl}-3-oxo-2-phenyl-2,3-dihydro-1H-pyrazol-4-yl)amino]-4-oxobutyl}-2-ethoxy-4-fluorobenzamide], the GI50 in experiment [1] came to 210 nM. The IC50 in experiment [2] was found to be 77 nM.
The matching figures for `CCOc1ncc(Br)cc1C(=O)NCC(C)(C)CC(=O)Nc1c(CCN(C)C)n(C)n(-c2ccccc2)c1=O` [Example 30, 5-Bromo-N-[4-({5-[2-(dimethylamino)ethyl]1-methyl-3-oxo-2-phenyl-2,3-dihydro-1H-pyrazol-4-yl}amino)-2,2-dimethyl-4-oxobutyl]-2-ethoxypyridine-3-carboxamide]: 480 nM and 94 nM.
The like results for `CCOc1cc(F)c(Cl)cc1C(=O)NCC(C)(C)CC(=O)Nc1c(CCN(C)CCF)n(C)n(-c2ccccc2)c1=O` [Example 37, 5-Chloro-2-ethoxy-4-fluoro-N-{4-[(5-{2-[2-fluoroethyl(methyl)amino]ethyl}-1-methyl-3-oxo-2-phenyl-2,3-dihydro-1H-pyrazol-4-yl)amino]-2,2-dimethyl-4-oxobutyl}benzamide] were, in that order, 120 nM and 38 nM.
The like results for `CCOc1cc(F)c(Cl)cc1C(=O)NCC(C)(C)CC(=O)Nc1c(C(C)CN(C)C)n(C)n(-c2ccccc2)c1=O` (stereo not drawn) [Example 69, 5-Chloro-N-[4-({5-[2-(dimethylamino)-1-methylethyl]-1-methyl-3-oxo-2-phenyl-2,3-dihydro-1H-pyrazol-4-yl}amino)-2,2-dimethyl-4-oxobutyl]-2-ethoxy-4-fluorobenzamide] were, in that order, 160 nM and 65 nM.
`CCOc1ccc(Cl)cc1C(=O)NCC(C)(C)CC(=O)Nc1c(CCC(=O)N2CCCC2)n(C)n(-c2ccccc2)c1=O` [Example 133, 5-Chloro-N-(2,2-dimethyl-4-{[1-methyl-3-oxo-5-(3-oxo-3-pyrrolidin-1-ylpropyl)-2-phenyl-2,3-dihydro-1H-pyrazol-4-yl]amino}-4-oxobutyl)-2-ethoxybenzamide] displayed a GI50 in experiment [1] of 500 nM. In experiment [2], this molecule yielded an IC50 of 81 nM.
The like results for `CCOc1ncc(Cl)cc1C(=O)NCC(C)(C)CC(=O)Nc1c(C(C)NC)n(C)n(-c2ccccc2)c1=O` (stereo not drawn) [Example 2, 5-Chloro-N-[2,2-dimethyl-4-({1-methyl-5-[1-(methylamino)ethyl]-3-oxo-2-phenyl-2,3-dihydro-1H-pyrazol-4-yl}amino)-4-oxobutyl]-2-ethoxypyridine-3-carboxamide] were, in that order, 250 nM and 160 nM.
In turn, `CCOc1ncc(Cl)cc1C(=O)NCC(C)(C)CC(=O)Nc1c([C@@H](C)CN(C)C)n(C)n(-c2ccccc2)c1=O` [Example 72, 5-Chloro-N-[4-({5-[(1S)-2-(dimethylamino)-1-methylethyl]-1-methyl-3-oxo-2-phenyl-2,3-dihydro-1H-pyrazol-4-yl}amino)-2,2-dimethyl-4-oxobutyl]-2-ethoxypyridine-3-carboxamide] had a GI50 in experiment [1] of 510 nM. Moreover, the IC50 in experiment [2] came out at 80 nM.
The matching figures for `CCOc1cc(F)c(Cl)cc1C(=O)NCC(C)(C)CC(=O)Nc1c([C@H](C)OC)n(C)n(-c2ccccc2)c1=O` [Example 123, 5-Chloro-2-ethoxy-4-fluoro-N-(4-{[5-((1S)-methoxyethyl)-1-methyl-3-oxo-2-phenyl-2,3-dihydro-1H-pyrazol-4-yl]amino}-2,2-dimethyl-4-oxobutyl)benzamide]: 120 nM and 39 nM.
The like results for `CCOc1ncc(Cl)cc1C(=O)NCC(C)(C)CC(=O)Nc1c(C[C@H](C)N(C)C)n(C)n(-c2ccccc2)c1=O` [Example 53, 5-Chloro-N-[4-({5-[(2S)-2-(dimethylamino)propyl]-1-methyl-3-oxo-2-phenyl-2,3-dihydro-1H-pyrazol-4-yl}amino)-2,2-dimethyl-4-oxobutyl]-2-ethoxypyridine-3-carboxamide] were, in that order, 240 nM and 63 nM.
As to `CCOc1ccc(Cl)cc1C(=O)NCC(C)(C)CC(=O)Nc1c(CC(C)(C)N)n(C)n(-c2ccccc2)c1=O` [Example 55, N-(4-{[5-(2-Amino-2-methylpropyl)-1-methyl-3-oxo-2-phenyl-2,3-dihydro-1H-pyrazol-4-yl]amino}-2,2-dimethyl-4-oxobutyl)-5-chloro-2-ethoxybenzamide], it took 170 nM to inhibit growth in experiment [1] by half (GI50). In experiment [2], the IC50 worked out at 43 nM.
